IC50 data for 4 compounds are collected here from patent publication US20120220571A1, “HIV INTEGRASE INHIBITORS” (priority 2009, published 2012).

In one experiment the test system is HIV. The experiment can be described thus: Inhibition of acute HIV infection, single cycle infectivity ("vertical") assay in HeLa P4-2 cells. Format: cell-based. Conditions: Human immunodeficiency virus 1, IIIB / NL43, HeLaP4-2. As to the method: An assay for measuring the inhibition of acute HIV infection with HeLa P4-2 cells in a single cycle infectivity assay (alternatively referred to as the “vertical” assay) was conducted in accordance with Joyce, J. G., et al., J. Biol. Chem. 2002, 277, 45811, Hazuda, D. J. et al., Science 2000, 287, 646, and Kimpton, J. et al, J. Virol. 1992, 66, 2232. Infectious virus was produced by transfecting 293T cells with HIV proviral DNA in which the integrase gene was derived from a IIIB isolate and the remainder of the HIV genome was derived from the NL4-3 isolate. […] For example, the compounds of Examples 1 to 4 were tested in this assay and found to have the IC50 values in Table C.

Another experiment concerns the target T1, HIV-1 integrase (Human immunodeficiency virus type 1 group M subtype B, UniProt P04585).
T1 construct: Strand Transfer Catalyzed by Recombinant Integrase
The experiment can be described thus: HIV integrase assay: strand transfer catalyzed by recombinant integrase. The format is biochemical. Conditions: inhibition of strand transfer activity. As to the method:
Assays for the strand transfer activity of HIV-1 integrase were conducted in accordance with WO 02/30930 for recombinant integrase. […] For example, the compounds prepared in Examples 1 to 4 were tested in the integrase assay and found to have the IC50 values in Table B.
Further description on conducting the assay using preassembled complexes is found in Wolfe, A. L. et al., J. Virol. 1996, 70: 1424-1432, Hazuda et al., J. Virol. 1997, 71: 7005-7011; Hazuda et al., Drug Design and Discovery 1997, 15: 17-24; and Hazuda et al., Science 2000, 287: 646-650.

Take `O=C1c2c(occ(O)c2=O)CCN1Cc1ccc(F)cc1` [Example 1, 6-(4-Fluorobenzyl)-3-hydroxy-7,8-dihydro-4H-pyrano[3,2-c]pyridine-4,5(6H)-dione]: the IC50 in the experiment with HIV was found to be 43000 nM; at HIV-1 integrase, 3200 nM.

`C=CCc1c(O)c(=O)c2c(n1C)CCN(Cc1ccc(F)cc1)C2=O` [Example 2, 2-Allyl-6-(4-fluorobenzyl)-3-hydroxy-1-methyl-7,8-dihydro-1,6-naphthyridine-4,5(1H,6H)-dione]: the IC50 in the experiment on HIV came to 5000 nM; on HIV-1 integrase, 100 nM.

For the compound `C=CCCn1c2c(c(=O)c(O)c1C(C)C=C)C(=O)N(Cc1ccc(F)cc1)CC2` (centres unmarked) [Example 3, 1-But-3-en-1-yl-6-(4-fluorobenzyl)-3-hydroxy-2-(1-methylprop-2-en-1-yl)-7,8-dihydro-1,6-napthyridine-4,5(1H,6H)-dione], the IC50 in the experiment with HIV worked out at 1000 nM; at HIV-1 integrase, 100 nM.

`CC1CCCCn2c3c(c(=O)c(O)c21)C(=O)N(Cc1ccc(F)cc1)CC3` (centres unmarked) [Example 4, 3-(4-Fluorobenzyl)-6-hydroxy-7-methyl-2,3,8,9,10,11-hexahydroazepino[1,2-a]-1,6-napthyridine-4,5(1H,7H)-dione]: the IC50 in the experiment on HIV was 5000 nM; at HIV-1 integrase, 120 nM.
